The subject of this assay is organoid bodies. The experiment in a line: Western blot of the liver protein α-fetoprotein in homogenates of organoid bodies incubated with HGF. The conditions noted are these: 40 ng/ml HGF. The format is cell-based. How it is done: In this example organoid bodies were exposed for a time period of 1 to 2 days to different micromolar concentrations of puromycin, an active substance that inhibits translation. Then, the size of the treated organoid bodies was compared with those of an untreated control (see comparative micrograph in FIG. 5A). In a second detection method the organoids were taken up in 10 ml lysis buffer containing 7.5 ml PBS, 2.5 ml NP-40 and 1 mM PEFA block, stored overnight in a refrigerator at 4° C. and then homogenized in minihomogenizers for Eppendorf tubes. The homogenate was centrifuged, the supernatant removed and resolved electrophoretically according to standard methods and the gel subjected to a Western immunoblot. […] The first four bands are produced by the different active amounts of puromycin, the last two show the amount of vigilin in the untreated organoids; the same amount of total protein was always applied per track.
The organoid bodies were incubated with 40 ng/ml HGF (hepatocyte growth factor) or without HFG for 7, 11 14 and 17 days. Then, the organoid bodies were homogenized as described in example 7 and subjected to a Western blot assay. The production of the liver protein α-fetoprotein was examined (FIG. 7).
For orientation: Immunoblotting shows a protein as a band on a membrane.

The values that follow come from US20080064034A1, “Multi-Cellular Test Systems” (FRAUNHOFER-GESELLSCHAFT ZUR FÖRDERUNG DER ANGEWAND, priority 2004, published 2008).

On to “HGF: hepatocyte growth factor, a differentiation factor for increased formation of cardiac and liver cells”, for which the “production of the liver protein α-fetoprotein” value was “distinct synthesis of the fetoprotein can be observed” (after 7 and 11 days of incubation); “tends to inhibit the production again” (longer exposure time (14 and 17 days)).
